Source: patent publication US10683292B2, “Purine and 3-deazapurine analogues as choline kinase inhibitors” (NERVIANO MEDICAL SCIENCES S.R.L., priority 2016, dated 2020)
Read-outs that look alike come from different tables or passages of the source.

Tests used:
hChoKβ FL = target: T1, hChoKβ FL (Homo sapiens, UniProt Q9Y259); experiment: Biochemical kinase inhibition assay (Kinase-Glo Luminescent Kinase Assay) on hChoKβ FL; conditions: ATP 5 μM, choline 20 μM, 60 minutes at rt; read-out: IC50 ChoKβ
T1 construct: hChoKβ full length (FL), corresponding to aminoacids 2-395; GST (N, cleaved yes); Prescission Protease recognition site (N, cleaved yes); made in house; host or cells: Escherichia coli BL21pLysS (DE3)
T1 sequence (Q9Y259 2-395): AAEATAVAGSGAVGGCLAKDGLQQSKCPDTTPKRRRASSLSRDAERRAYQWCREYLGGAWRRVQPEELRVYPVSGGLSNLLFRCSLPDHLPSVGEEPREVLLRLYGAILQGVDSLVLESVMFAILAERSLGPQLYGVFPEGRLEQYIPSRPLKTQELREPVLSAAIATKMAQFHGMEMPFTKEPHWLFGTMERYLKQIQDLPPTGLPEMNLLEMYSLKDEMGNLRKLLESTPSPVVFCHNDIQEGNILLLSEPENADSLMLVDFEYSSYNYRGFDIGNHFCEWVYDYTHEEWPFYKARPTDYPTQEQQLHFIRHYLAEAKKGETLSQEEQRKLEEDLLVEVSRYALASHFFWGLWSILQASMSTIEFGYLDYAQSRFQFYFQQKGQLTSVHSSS
Method: (§1) The biochemical activity of compounds against Δ49N-ChoKα and ChoKβ FL were determined using the Kinase-Glo™ Luminescent Kinase Assay (Promega cat. V6711).
(§2) Compounds were 3-fold serially diluted from 10 to 0.0005 μM, then incubated for 60 minutes at rt in the presence of ATP 5 μM, choline (5 μM for ChoKα and 20 μM for ChoKβ) and enzyme in a final volume of 19 μL of kinase buffer (50 mM Hepes pH 7.5, 10 mM MgCl2, 1 mM DTT, 3 μM Na3VO4 and 0.2 mg/mL BSA). The final concentration of DMSO was 1%.
(§3) At the end of the incubation, an amount of 19 μL of KinaseGlo Reagent was added to each well to stop the reaction and after 30 minutes the luminescence signal was measured using ViewLux reader (Perkin Elmer).
(§4) The data per each molecule are analyzed by an internally customized version of the SW package “Assay Explorer” which provides sigmoidal fittings of the ten-dilution curves for IC50 determination using a 4 parameter logistic equation: y=bottom+(top−bottom)/(1+10^((log IC50−x)*slope)) where x is the logarithm of the inhibitor concentration, y is the response; y starts at bottom and goes to top with a sigmoid shape.

Δ49N-hChoKα = target: T2, Δ49N-hChoKα (Homo sapiens, UniProt P35790); experiment: Biochemical kinase inhibition assay (Kinase-Glo Luminescent Kinase Assay) on Δ49N-hChoKα
T2 construct: cDNA fragment 362-1534, corresponding to aminoacids 50-457; GST (N, cleaved yes); Prescission Protease recognition site (N, cleaved yes); made in house; host or cells: Escherichia coli BL21pLysS (DE3)
T2 sequence (P35790 50-457, stated change not applied): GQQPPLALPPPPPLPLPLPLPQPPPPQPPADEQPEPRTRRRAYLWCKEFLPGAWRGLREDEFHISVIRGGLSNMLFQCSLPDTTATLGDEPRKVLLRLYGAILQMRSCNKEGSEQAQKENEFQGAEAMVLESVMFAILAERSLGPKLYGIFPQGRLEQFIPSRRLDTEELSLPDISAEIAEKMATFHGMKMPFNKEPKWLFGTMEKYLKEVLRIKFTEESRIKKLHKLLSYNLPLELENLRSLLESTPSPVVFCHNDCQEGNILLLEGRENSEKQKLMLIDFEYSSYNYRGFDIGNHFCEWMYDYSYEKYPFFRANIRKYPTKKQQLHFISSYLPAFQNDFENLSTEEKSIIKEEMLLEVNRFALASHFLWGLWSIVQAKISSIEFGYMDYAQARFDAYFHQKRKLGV
Method: as §1, §2, §3, §4

[1] = ATP 5 μM, choline 5 μM, 60 minutes at rt, read-out: IC50 ChoKα

Nc1nc(Cl)nc2c1ncn2[C@H]1CC[C@@H](C(=O)Nc2nc(CN3CCC(N)CC3)cs2)CC1 [cpd 120, cis-4-(6-amino-2-chloro-9H-purin-9-yl)-N-{4-[(4-aminopiperidin-1-yl)methyl]-1,3-thiazol-2-yl}cyclohexanecarboxamide]
IC50 (hChoKβ FL): > 10000 nM | IC50 (Δ49N-hChoKα; [1]): 40 nM

COc1cccc(NC(=O)[C@H]2CC[C@@H](n3cnc4c(N)nc(C#CCO)nc43)CC2)c1 [cpd 60, cis-4-[6-amino-2-(3-hydroxyprop-1-yn-1-yl)-9H-purin-9-yl]-N-(3-methoxyphenyl)cyclohexanecarboxamide]
IC50 (hChoKβ FL): > 10000 nM | IC50 (Δ49N-hChoKα; [1]): 854 nM

Nc1nc(Cl)nc2c1ncn2[C@H]1CC[C@@H](C(=O)Nc2nc3cc(F)c(F)c(F)c3s2)CC1 [cpd 171, cis-4-(6-amino-2-chloro-9H-purin-9-yl)-N-(5,6,7-trifluoro-1,3-benzothiazol-2-yl)cyclohexanecarboxamide]
IC50 (hChoKβ FL): 5800 nM | IC50 (Δ49N-hChoKα; [1]): 105 nM

COc1cccc(NC(=O)[C@H]2CC[C@@H](n3cnc4c(N)nc(-c5cccc(C(=O)Nc6ccc(CN7CCC(N(C)C)CC7)cc6)c5)nc43)CC2)c1 [cpd 31, 3-(6-amino-9-{cis-4-[(3-methoxyphenyl)carbamoyl]cyclohexyl}-9H-purin-2-yl)-N-(4-{[4-(dimethylamino)piperidin-1-yl]methyl}phenyl)benzamide]
IC50 (hChoKβ FL): > 10000 nM | IC50 (Δ49N-hChoKα; [1]): 40 nM

CN(c1nc(CC(N)=O)cs1)C(=O)[C@H]1CC[C@@H](n2cnc3c(N)nc(Cl)nc32)CC1 [cpd 164, cis-4-(6-amino-2-chloro-9H-purin-9-yl)-N-[4-(2-amino-2-oxoethyl)-1,3-thiazol-2-yl]-N-methylcyclohexanecarboxamide]
IC50 (hChoKβ FL): > 10000 nM | IC50 (Δ49N-hChoKα; [1]): 70 nM

COc1nc(N)c2ncn([C@H]3CC[C@@H](C(=O)Nc4nc5ccc(F)cc5s4)CC3)c2n1 [cpd 170, cis-4-(6-amino-2-methoxy-9H-purin-9-yl)-N-(6-fluoro-1,3-benzothiazol-2-yl)cyclohexanecarboxamide]
IC50 (hChoKβ FL): > 10000 nM | IC50 (Δ49N-hChoKα; [1]): 54 nM

Cc1cccc(NC(=O)[C@H]2CC[C@@H](n3cnc4c(N)nc(-c5ccncc5)nc43)CC2)c1 [cpd 50, cis-4-[6-amino-2-(pyridin-4-yl)-9H-purin-9-yl]-N-(3-methylphenyl)cyclohexanecarboxamide]
IC50 (hChoKβ FL): > 10000 nM | IC50 (Δ49N-hChoKα; [1]): 311 nM

COc1cccc(NC(=O)[C@H]2CC[C@@H](n3cnc4c(N)nc(C5CC5)nc43)CC2)c1 [cpd 87, cis-4-(6-amino-2-cyclopropyl-9H-purin-9-yl)-N-(3-methoxyphenyl)cyclohexanecarboxamide]
IC50 (hChoKβ FL): > 10000 nM | IC50 (Δ49N-hChoKα; [1]): 974 nM

Nc1nc(F)nc2c1ncn2[C@H]1CC[C@@H](C(=O)Nc2nc3ccc(F)cc3s2)CC1 [cpd 128, cis-4-(6-amino-2-fluoro-9H-purin-9-yl)-N-(6-fluoro-1,3-benzothiazol-2-yl)cyclohexanecarboxamide]
IC50 (hChoKβ FL): > 10000 nM | IC50 (Δ49N-hChoKα; [1]): 38 nM

CC(=O)Nc1ccc2nc(NC(=O)[C@H]3CC[C@@H](n4cnc5c(N)nc(Cl)nc54)CC3)sc2c1 [cpd 183, cis-N-[6-(acetylamino)-1,3-benzothiazol-2-yl]-4-(6-amino-2-chloro-9H-purin-9-yl)cyclohexanecarboxamide]
IC50 (hChoKβ FL): 1990 nM | IC50 (Δ49N-hChoKα; [1]): 17 nM

Nc1nc(Cl)nc2c1ncn2[C@H]1CC[C@@H](C(=O)Nc2nc3c(s2)CCCC3)CC1 [cpd 205, cis-4-(6-amino-2-chloro-9H-purin-9-yl)-N-(4,5,6,7-tetrahydro-1,3-benzothiazol-2-yl)cyclohexanecarboxamide]
IC50 (hChoKβ FL): 5200 nM | IC50 (Δ49N-hChoKα; [1]): 15 nM

Cc1csc(NC(=O)[C@H]2CC[C@H](n3cnc4c(N)nc(-c5cccc(C(N)=O)c5)nc43)CC2)n1 [cpd 97, 3-(6-amino-9-{trans-4-[(4-methyl-1,3-thiazol-2-yl)carbamoyl]cyclohexyl}-9H-purin-2-yl)benzamide]
IC50 (hChoKβ FL): > 10000 nM | IC50 (Δ49N-hChoKα; [1]): 478 nM

Nc1nc(Cl)nc2c1ncn2[C@H]1CC[C@@H](C(=O)Nc2ccc(C(=O)NC3CCCCC3)cc2)CC1 [cpd 71, 4-({[cis-4-(6-amino-2-chloro-9H-purin-9-yl)cyclohexyl]carbonyl}amino)-N-cyclohexylbenzamide]
IC50 (hChoKβ FL): 2840 nM | IC50 (Δ49N-hChoKα; [1]): 375 nM

Nc1nc(Cl)nc2c1ncn2[C@H]1CC[C@@H](C(=O)Nc2nc3cc(Cl)ccc3o2)CC1 [cpd 94, cis-4-(6-amino-2-chloro-9H-purin-9-yl)-N-(5-chloro-1,3-benzoxazol-2-yl)cyclohexanecarboxamide]
IC50 (hChoKβ FL): 5620 nM | IC50 (Δ49N-hChoKα; [1]): 178 nM

Nc1nc(Cl)nc2c1ncn2[C@H]1CC[C@@H](NC(=O)c2nc3ccccc3s2)CC1 [cpd 140, N-[cis-4-(6-amino-2-chloro-9H-purin-9-yl)cyclohexyl]-1,3-benzothiazole-2-carboxamide]
IC50 (hChoKβ FL): > 10000 nM | IC50 (Δ49N-hChoKα; [1]): 514 nM

Cc1csc(NC(=O)[C@H]2CC[C@@H](n3cnc4c(N)nc(-c5ccncc5)nc43)CC2)n1 [cpd 81, cis-4-[6-amino-2-(pyridin-4-yl)-9H-purin-9-yl]-N-(4-methyl-1,3-thiazol-2-yl)cyclohexanecarboxamide]
IC50 (hChoKβ FL): > 10000 nM | IC50 (Δ49N-hChoKα; [1]): 125 nM

Nc1nc(Cl)nc2c1ncn2[C@H]1CC[C@@H](C(=O)Nc2nc3ccc(CC(=O)O)cc3s2)CC1 [cpd 176, [2-({[cis-4-(6-amino-2-chloro-9H-purin-9-yl)cyclohexyl]carbonyl}amino)-1,3-benzothiazol-6-yl]acetic acid]
IC50 (hChoKβ FL): 4020 nM | IC50 (Δ49N-hChoKα; [1]): 34 nM

Cc1cc2nc(NC(=O)[C@H]3CC[C@@H](n4cnc5c(N)nc(Cl)nc54)CC3)sc2cc1C [cpd 93, cis-4-(6-amino-2-chloro-9H-purin-9-yl)-N-(5,6-dimethyl-1,3-benzothiazol-2-yl)cyclohexanecarboxamide]
IC50 (hChoKβ FL): 6080 nM | IC50 (Δ49N-hChoKα; [1]): 48 nM

CC(C)(C)OC(=O)N1[C@H]2CC[C@@H]1c1sc(NC(=O)[C@H]3CC[C@@H](n4cnc5c(N)nc(Cl)nc54)CC3)nc1C2 [cpd 187, tert-butyl (5S,8R)-2-({[cis-4-(6-amino-2-chloro-9H-purin-9-yl)cyclohexyl]carbonyl}amino)-5,6,7,8-tetrahydro-4H-5,8-epiminocyclohepta[d][1,3]thiazole-9-carboxylate]
IC50 (hChoKβ FL): 5630 nM | IC50 (Δ49N-hChoKα): 29 nM

Cc1csc(NC(=O)[C@H]2CC[C@@H](n3cnc4c(N)nc(C#N)nc43)CC2)n1 [cpd 102, cis-4-(6-amino-2-cyano-9H-purin-9-yl)-N-(4-methyl-1,3-thiazol-2-yl)cyclohexanecarboxamide]
IC50 (hChoKβ FL): > 10000 nM | IC50 (Δ49N-hChoKα; [1]): 88 nM

Nc1nc(F)nc2c1ncn2[C@H]1CC[C@@H](C(=O)Nc2nc3c(s2)COCC3)CC1 [cpd 200, cis-4-(6-amino-2-fluoro-9H-purin-9-yl)-N-(6,7-dihydro-4H-pyrano[4,3-d][1,3]thiazol-2-yl)cyclohexanecarboxamide]
IC50 (hChoKβ FL): > 10000 nM | IC50 (Δ49N-hChoKα; [1]): 24 nM

Nc1nc(Cl)nc2c1ncn2[C@H]1CC[C@@H](C(=O)Nc2nc3cc4c(cc3s2)OCO4)CC1 [cpd 186, cis-4-(6-amino-2-chloro-9H-purin-9-yl)-N-([1,3]dioxolo[4,5-f][1,3]benzothiazol-6-yl)cyclohexanecarboxamide]
IC50 (hChoKβ FL): 5470 nM | IC50 (Δ49N-hChoKα; [1]): 43 nM

Cc1csc(NC(=O)[C@H]2CC[C@@H](n3cnc4c(N)nc(C#C[Si](C)(C)C)nc43)CC2)n1 [cpd 98, cis-4-{6-amino-2-[(trimethylsilyl)ethynyl]-9H-purin-9-yl}-N-(4-methyl-1,3-thiazol-2-yl)cyclohexanecarboxamide]
IC50 (hChoKβ FL): > 10000 nM | IC50 (Δ49N-hChoKα; [1]): 120 nM
